US20260256753A1, “USE OF AN OREXIN 2 RECEPTOR AGONIST FOR IMPROVING RESPIRATORY FUNCTION DURING SLEEP” (TAKEDA PHARMACEUTICAL COMPANY LIMITED, priority 2023, published 2026)

Key:
[1] = system: patients with obstructive sleep apnea; assay: Phase 1b crossover study of overnight intravenous infusion in obstructive sleep apnea: safety and tolerability; format: in vivo, human; conditions: for placebo adjusted LS mean change in DBP / placebo adjusted LS mean change in SBP: at predose
Experimental: A phase 1b, randomized, double-blind, placebo-controlled, 3-period crossover study was conducted to evaluate the safety, tolerability, pharmacodynamic, and pharmacokinetic effects of overnight intravenous COMPOUND A in patients with obstructive sleep apnea (OSA). This study was planned to further evaluate COMPOUND A intravenous administration (IV) in adults with OSA, hypothesizing that nonwake-promoting exposures of COMPOUND A would increase genioglossal muscle tone and increase airway patency via the increasing activity of hypoglossal motoneurons. The main goal of this study was to evaluate the mechanistic potential of OX2R agonism for treatment of OSA using COMPOUND A IV infusion to determine appropriate use in future trials with an oral OX2R agonist.
Participants were male or female, aged 18 to 75 years inclusive, with OSA diagnosed according to the International Classification of Sleep Disorders-3 (ICSD-3) criteria and an apnea hypopnea index (AHI) of 12 to 50 events/hour of sleep. The study consisted of a screening period, 3 treatment periods separated by 2 washout periods, and a follow-up period. A total of 13 participants were enrolled and randomized, of which 12 (92.3%) participants completed all planned doses of study drug and the study.
Eligible participants were randomly assigned (in a double-blinded manner) to 1 of 6 treatment sequences. In each treatment period, participants underwent 3 UACI assessments, a 10-minute evaluation that tested the key biological mechanism that causes OSA (as described by Osman, A. M., et al., 2019, Sleep, 42 (7), 1-10), followed by an overnight polysomnography (PSG). After the first baseline UACI assessment (U1), an IV infusion regimen of COMPOUND A or placebo was administered over approximately 10 hours to achieve specific plasma concentrations to evaluate the effect of COMPOUND A on the UACI and PSG metrics. Target plasma concentrations for the low-dose COMPOUND A IV regimen were 10 ng/mL for the second UACI (U2), 30 ng/ml for the third UACI (U3), and 10 ng/ml for the overnight PSG. Target plasma concentrations for the high-dose COMPOUND A IV regimen were 30 ng/mL for the U2, 90 ng/mL for the U3, and 30 ng/ml for the overnight PSG.
To achieve the target exposures for the UACI assessments (U2 and U3), there was a 20-minute loading period, followed by a 15-minute maintenance period for each. The overnight maintenance dose (approximately 490 minutes) covered the duration of a standard overnight PSG (approximately 8 hours). Doses were selected to cover the potential pharmacologically active concentration range for upper airway collapsibility. The concentration of COMPOUND A in solution was such that participants received the same volume of fluid in the low-dose COMPOUND A regimen, the high-dose COMPOUND A regimen, and placebo, allowing the study to be double-blinded and ensuring all participants were infused with the same volume of fluid.
On Day 1 of each treatment period, participants checked in approximately 3 hours prior to the scheduled dosing time. The procedure started in the evening to reduce the confounding factors of endogenous OX levels on assessments. Start time was adjusted based on the patient's usual bedtime. Following a physical examination, urine drug screen, and alcohol breathalyzer test, participants were fitted with an IV catheter for placebo/COMPOUND A infusion, electroencephalogram (EEG) electrodes to monitor wakefulness, choanal and epiglottic pressure sensors, and a nasal mask and pneumotachograph to measure airflow (Osman, et al. 2019).
Following the baseline UACI measurements, IV infusion of placebo or COMPOUND A began. COMPOUND A was tested at 2 concentrations in a stepwise manner, consisting of a 20 minute loading period followed by a 15 minute maintenance period per step. The UACI was tested at each concentration during the maintenance period. […]

diaphragm = assay: EMG recording of the diaphragm in anesthetized rats; format: in vivo, rat; conditions: 10 min after administration, versus vehicle, FIG. 4
Experimental: Rats were anaesthetized with isoflurane (induction: 2%, maintenance: 1.5%). Anesthetic depth was assessed by the reflex responses to paw pinches. The tail vein was cannulated for intravenous drug administration. Rats were laid on disposable body warmers to prevent decrease in body temperature. The diaphragm was exposed, then two needle electrodes were implanted into costal diaphragm to monitor diaphragm EMG. After 10 min of baseline recording, vehicle (0.1% [w/v] Polysorbate 80 and 20% [w/v] Captisol solution) or Compound C was administered intravenously, and then EMG was recorded for 10 min. EMG was amplified using Bio amp system (ML132, AD Instruments), high-pass filtered (10 Hz), digitized, and recorded using PowerLab software (AD Instruments), and then rectified and integrated with a time constant decay (100 ms) using LabChart software (AD Instruments). Threshold levels for bursts were set using LabChart software (AD Instruments). Bursts were then automatically detected, and burst frequency was measured. Mean values in burst frequency during 2 min before vehicle or Compound C administration were used as control values, and those during 10 min after vehicle or Compound C administration were used to calculate percent of control values.

SMILES	participants who experienced drug-related TEAEs ([1]; all treatment periods (low-dose, high-dose, placebo), 13 participants) [%]	number of drug-related TEAEs ([1]; all treatment periods (low-dose, high-dose, placebo), all mild)	deaths or serious TEAEs ([1]; during the study)	drug related TEAEs ([1]; high dose regimen)	placebo adjusted LS mean change in DBP ([1]; high dose regimen) [mmHg]	placebo adjusted LS mean change in SBP ([1]; high dose regimen) [mmHg]	consequence of TEAE of blood pressure increased ([1]; low dose regimen)	placebo adjusted LS mean change in DBP ([1]; low dose regimen) [mmHg]	placebo adjusted LS mean change in SBP ([1]; low dose regimen) [mmHg]	dose related trend of most frequent TEAE (headache) ([1]; low versus high dose regimen)	tolerability ([1]; low-dose and high-dose IV regimens, adult participants with OSA)	drug-related TEAE of blood pressure increased (number) ([1]; low-dose regimen)	drug-related TEAE of myalgia (number) ([1]; low-dose regimen)	drug-related TEAEs of headache (number) ([1]; low-dose regimen and placebo together)	intensity of TEAEs ([1]; whole study, moderate headache on low dose regimen, not related to study drug)	burst frequency of the diaphragm (diaphragm; 1 mg/kg intravenous)	burst frequency of the diaphragm (diaphragm; 3 mg/kg intravenous)
COC(=O)N1CCC[C@H](NS(C)(=O)=O)[C@@H]1CO[C@H]1CC[C@@H](c2ccccc2)CC1 (relative stereo) [Compound A, methyl(2R,3S)-3-((methylsulfonyl)amino)-2-(((cis-4-phenylcyclohexyl)oxy)methyl) piperidine-1-carboxylate]	23.1	4	No deaths or serious TEAEs	no drug related TEAEs	1.84	9.01	led to study drug discontinuation	0.29	2.44	no dose related trend was observed	generally well tolerated with no safety concerns	1	1	2	mild in intensity except for 1 moderate TEAE of headache		
CC(C)(O)C(=O)N1CC(F)(F)[C@H](NS(C)(=O)=O)[C@@H]1Cc1cccc(-c2cc(F)cc(F)c2)c1F [Compound C, N-{(2S,3R)-4,4-difluoro-1-(2-hydroxy-2-methylpropanoyl)-2-[(2,3′,5′-trifluoro[1,1′-biphenyl]-3-yl)methyl]pyrrolidin-3-yl}methanesulfonamide]																significantly increased burst frequency	significantly increased burst frequency
